# Experimental data from US6649144B1, “Method for detecting and killing epithelial cancer cells” (Zila, Inc., priority 2001, dated 2003).
# System: carcinoma cells
# Assay: Uptake and retention of mitochondrial marking agents in living carcinoma cells
# Assay type: cell-based
# Conditions: 5 minutes incubation at 37° C., rinsed twice with 1% acetic acid, 2-butanol extraction, spectrophotometry
# Description: Different concentrations of the various cationic marking agents, at 100, 50, 10 and 1 μg/ml are prepared in RPMI medium complete with 20% fetal calf serum, 1 mM glutamine, hydrocortisone, insulin, transferrin, estradiol, selenium and growth hormone.
# The carcinoma cells are incubated at 37° C. in tissue culture incubators with 5% CO2 and 95% relative humidity, for 5 minutes with each agent and concentration there and then rinsed twice using 2 minute incubations with 1% acetic acid. After incubation and rinsing, the cells are harvested, at 30 min., 1 hour, 2 hours, 4 hours and 8 hours. The cells are then extracted with 2-butanol and analyzed by spectrophotometry for quantitation of the marking agent.
# The saturation concentration for toluidine blue O occurs at concentrations of 10 μg/ml and above. The saturation concentrations for the other marking agents are similarly determined. The remaining experiments are conducted with a concentration of 10 μg/ml for toluidine blue O and at the saturation concentrations for the other marking agents so-determined, unless stated otherwise.
smiles,measurement,value
Cc1cc2nc3ccc(N(C)C)cc3[s+]c2cc1N.[Cl-] [toluidine blue O],saturation concentration,≥ 10 µg/mL
